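Results reflect a 48-hour exposure of cells in 96-well plates to compound at five concentrations. GI50 = concentration required for 50% inhibition of growth. TGI: concentration producing complete growth inhibition.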
Experiments:
Assay in all cases: NCI anticancer screen, dose series, 48 h
MCF7 breast = tested on: MCF7 breast
SR leukemia = tested on: SR leukemia
HL-60(TB) leukemia = tested on: HL-60(TB) leukemia
SN12C renal = tested on: SN12C renal
UO-31 renal = tested on: UO-31 renal
HCT-116 colon = tested on: HCT-116 colon
K-562 leukemia = tested on: K-562 leukemia
SF-268 CNS = tested on: SF-268 CNS
DU-145 prostate = tested on: DU-145 prostate
HCT-15 colon = tested on: HCT-15 colon

Row | SMILES | GI50 (MCF7 breast) [µM] | TGI (MCF7 breast) [µM] | GI50 (SR leukemia) [µM] | TGI (SR leukemia) [µM] | GI50 (HL-60(TB) leukemia) [µM] | TGI (HL-60(TB) leukemia) [µM] | GI50 (SN12C renal) [µM] | TGI (SN12C renal) [µM] | GI50 (UO-31 renal) [µM] | TGI (UO-31 renal) [µM] | GI50 (HCT-116 colon) [µM] | TGI (HCT-116 colon) [µM] | GI50 (K-562 leukemia) [µM] | TGI (K-562 leukemia) [µM] | GI50 (SF-268 CNS) [µM] | TGI (SF-268 CNS) [µM] | GI50 (DU-145 prostate) [µM] | TGI (DU-145 prostate) [µM] | GI50 (HCT-15 colon) [µM] | TGI (HCT-15 colon) [µM]
1 | Oc1ccc(N=Nc2ccccn2)c(O)c1 | 0.677 | > 100 | 0.723 | > 100 | 0.412 | 8.75 | 1.91 | > 100 | 0.479 | > 100 | 0.428 | > 100 | 0.582 | > 100 | 0.732 | > 100 | 1.55 | > 100 | 0.423 | > 100
2 | Cc1cc(C(=O)c2ccccc2)c(C)c2c1[nH]c1ccc(Cl)cc12 | 0.0361 | 17.9 | 0.0383 | > 63.4 | 0.0398 | 1.78 | 0.117 | 14.3 | 0.102 | 14.1 | 0.0437 | 4.74 | 0.0348 | > 100 | 0.715 | > 78.3 | 0.112 | > 42.1 | 0.0492 | 5.1
3 | C=C1C(=O)O[C@H]2[C@H]1CC/C(COC(=O)NCc1ccc(Cn3c(=O)sn(-c4ccccc4)c3=O)cc1)=C\CC[C@@]1(C)O[C@@H]21 | 1.59 | 3.55 |  |  |  |  | 2.14 | 5.1 | 1.68 | 3.16 | 1.52 | 2.95 | 1.8 | > 100 | 2.21 | 5 | 1.71 | 3.12 | 1.94 | 3.88
4 | CCCCCCCCCCCCCCCC1=NC(C)(C)CN1C(C)C | 1.55 | 3.01 | 0.254 | 1.36 | 0.91 | 2.4 | 1.38 | 2.89 | 1.44 | 2.84 | 1.22 | 2.46 | 0.448 | 1.72 | 1.47 | 2.79 | 1.56 | 2.9 | 1.47 | 2.79
5 | CCCCCCCCCCC(C)CCCCCCC(=O)O (centres undefined) |  |  |  | > 100 |  | > 100 |  | > 100 |  | > 100 |  | > 100 |  | > 100 |  | > 100 |  |  |  | > 100
6 | COC(=O)C(C)NC(=O)c1ccccc1I(OS(=O)(=O)C(F)(F)F)c1ccccc1 (centres undefined) | 22.3 | > 65.5 |  |  |  |  | 15.4 | 32.4 | 21.3 | 42.1 | 30 | > 100 | > 42.4 | > 63.7 | 17.6 | 53.2 | 25.6 | > 71.1 | 16 | 41.7
7 | O=C(O)/C(=C\c1ccncc1)c1cccc2ccccc12 |  |  |  | > 100 |  | > 100 |  | > 100 |  |  |  | > 100 |  | > 100 |  | > 100 |  | > 100 |  | > 100
8 | CC1(C)C(=O)/C(=C\c2cccnc2)C[C@]2(C)[C@H]3CC[C@@H]4[C@@H](C(=O)/C=C/c5ccncc5)CC[C@@]4(C)[C@]3(C)CC[C@@H]12 | 0.804 | 4.62 | 1.68 | 9.81 | 1.78 | 6.35 | 2.47 | 7.85 | 1.67 | 3.04 | 1.62 | 3.16 | 1.2 | > 100 | 2.41 | 6.53 | 1.68 | 3.24 | 1.71 | 4.85
9 | CN(C)CCCn1c(-c2nonc2N)nc2cnccc21 | > 25 | > 25 | > 25 | > 25 | > 25 | > 25 | > 25 | > 25 | > 11.2 | > 25 | > 25 | > 25 | > 25 | > 25 | > 25 | > 25 | > 25 | > 25 | > 25 | > 25
10 | CCN(CC)CCNC(=O)c1cccc2nc3ccccc3nc12 |  |  |  |  |  |  |  | > 100 |  | > 71.7 |  | 45.6 |  | > 100 |  | 36.9 |  |  |  | 41.8
11 | O=C(CC/C(CC(=O)c1ccc(Br)cc1)=N\O)Nc1ccc(Cl)c(Cl)c1 |  |  |  | > 100 |  | > 100 |  | > 100 |  | > 100 |  | > 100 |  | > 100 |  | > 100 |  |  |  | > 100
12 | CN(C)CC/C(=N\Nc1ccc(Cl)cc1Cl)c1ccccc1 |  |  |  | 32.3 |  | 21.6 |  | 25.1 |  | 10.5 |  | 27.9 |  | 33.4 |  |  |  |  |  | 24.9
13 | CCC[CH2][Sn]1([CH2]CCC)[O]CC(C)[O]1 (centres undefined) |  |  | 0.515 | 2.27 | 0.661 | 2.62 | 1.39 | 2.78 | 1.54 | 3.1 | 1.78 | 3.43 | 0.367 | 1.97 |  |  |  |  | 1.1 | 2.35
14 | Cc1cccc2c(O)cc(=O)oc12 |  |  |  | > 100 |  | > 100 |  | > 100 |  | > 100 |  | > 100 |  | > 100 |  | > 100 |  |  |  | 
15 | O=C(/C=C\c1ccccc1)N1CCc2ccccc2C1 |  | > 100 |  | 69.1 |  | 83.6 |  |  |  | > 100 |  | > 100 |  | 45.8 |  | > 100 |  | > 100 |  | > 100
16 | CC(=O)[CH-]C(C)=O.CC(=O)[CH-]C(C)=O.CC[O-].CC[O-].[Ti+4] |  |  |  |  | > 100 | > 100 | > 100 | > 100 | > 100 | > 100 |  |  | > 100 | > 100 | > 100 | > 100 |  |  | > 100 | > 100
17 | NNC(=O)C(=O)N/N=C(\CCC(=O)Nc1ccc(Cl)cc1)Cc1nc2ccccc2s1 |  |  |  | 68.5 |  | > 100 |  | > 100 |  | > 100 |  | > 100 |  | > 100 |  | > 100 |  |  |  | > 100

Source: PubChem BioAssay (NCI)
